In PMC8400955 (Pharmaceuticals, 2021):
Where “and” joins values, the source holds several entries; their conditions need not be identical. Identical values can stand only once.

Legend:
[1] = 4-week repeat-dose toxicity/TK study in rats; type: in vivo, Sprague Dawley rats; details: for AUC(0-t) / Cmax / Tmax: Sprague Dawley (Crl: CD (SD)), rat, plasma, po
Experimental: The PK of ZB716 was investigated in a 4-week repeat-dose toxicity study in rats. Groups of Sprague Dawley rats (n = 10/sex/group; n = 3/sex/TK group) were orally administered ZB716 (5% EtOH, 15% PG, 5% Solutol, and 75% of 40% HP-β-CD in DI water) at dose levels of 25, 100, and 400 mg/kg/day for 4 weeks. The plasma concentration of ZB716 was measured at various times through to 24 h post-dose on days 1 and 28.
Four-to-six-week-old Sprague Dawley rats (Crl: CD (SD)) (SPF/VAF) were purchased from Beijing Vital River Laboratory Animal Technology, Co. Ltd.). Six-month-old beagle dogs were purchased from Beijing Marshall Biotechnology Co. Ltd. Animals were quarantined/acclimated for 2–6 weeks prior to dose initiation. Both Sprague Dawley rats and beagle dogs were given oral administration of ZB716 (20% PG, 5% Solutol, and 75% of 40% HP-β-CD in water) at different dose levels. After treatment with the test articles, whole blood was collected from each study animal by puncture of the tail vein (0.4 mL of whole blood from rats) and/or the peripheral vein (0.6 mL of whole blood from dogs) into tubes containing K2EDTA at each timepoint: pre-dose, and 0.5, 1, 2, 4, 8, and 24 h post-dose. The plasma samples were divided into 2 aliquots (approximately equal in volume) and stored frozen at −75 ± 15 °C within 2 h of the collection until analysis at Pharmaron, China.
The stock solution of ZB716 (5.0 mg/mL) and ZB716-d6 (1 mg/mL) in ACN:DI Water = 1:1 was prepared and stored at −20 ± 5 °C. The desired serial concentrations of working reference analyte solutions were achieved by diluting a stock analyte solution with 50% acetonitrile (0.1% formic acid) in water solution. The bioanalytical LC–MS/MS method was validated for quantitative determination of ZB716 in Sprague Dawley rat plasma and beagle dog plasma, with acceptable selectivity, sensitivity, calibration curve, precision, and accuracy. This method is applicable for the determination of ZB716 in Sprague Dawley rat plasma and beagle dog plasma, with a lower limit of quantification of 20.0 ng/mL, and an upper limit of quantification of 10,000 ng/mL.
Five microliters of diluted supernatant was injected into the LC–MS/MS system (Shimadzu LC30AD HPLC system with a SynergiTM 4 μm Fusion-RP 80 Å (50 × 2 mm) column using gradient elution and a Triple Quad 5500 mass spectrometer) for quantitative analysis. The mobile phases used were 0.1% formic acid in deionized water and 0.1% formic acid in acetonitrile. The pharmacokinetic parameters T1/2 (the biological half-life), Cmax (maximal concentration), Tmax (time at which Cmax is observed), and AUC (area under the plasma concentration–time curve) were calculated from the plasma concentration versus time data using WinNonlin (Phoenix^TM, version 8.1, Mountain View, CA, USA). All PK studies were conducted by Pharmaron in Beijing, China.

[2] = Metabolic stability in monkey hepatocytes; type: in vitro ADME
Experimental: (§1) Hepatocytes of humans (#X008001), dogs (#M00205), rats (#M00005), and mice (#M005052) were purchased from BioIVT, NY, USA. Monkey hepatocytes were procured from RILD, Shanghai, China. The metabolic stability of ZB716 in human, monkey, dog, rat and mouse hepatocytes was investigated by incubating ZB716 with human, monkey, dog, rat, and mouse hepatocytes (0.5 × 10^6 cells/mL), or with incubation medium only.
(§2) parent disappearance vs. incubation time curve.
(§3) Scaled-up Clint = kV/N × Scaling Factor
(§4) metabolite formed during the reaction.

[3] = tested on: monkey hepatocytes; assay: Metabolic stability in monkey hepatocytes; type: in vitro ADME; details: 1 μM
Experimental: as §1, §2, §3, §4

[4] = tested on: human liver microsomes; assay: ZB716 remaining in human liver microsomes with and without CYP-specific chemical inhibitors; details: HLM
[5] = female, 25 mg/kg/day, day 1, PO 25 mg/kg/day, Female
[6] = female, 25 mg/kg/day, day 28, PO 25 mg/kg/day, Female
[7] = female, 100 mg/kg/day, day 1, PO 100 mg/kg/day, Female
[8] = female, 100 mg/kg/day, day 28, PO 100 mg/kg/day, Female
[9] = female, 400 mg/kg/day, day 1, PO 400 mg/kg/day, Female
[10] = female, 400 mg/kg/day, day 28, PO 400 mg/kg/day, Female
[11] = male, 25 mg/kg/day, day 1, PO 25 mg/kg/day, Male
[12] = male, 25 mg/kg/day, day 28, PO 25 mg/kg/day, Male
[13] = male, 100 mg/kg/day, day 1, PO 100 mg/kg/day, Male
[14] = male, 100 mg/kg/day, day 28, PO 100 mg/kg/day, Male
[15] = male, 400 mg/kg/day, day 1, PO 400 mg/kg/day, Male
[16] = male, 400 mg/kg/day, day 28, PO 400 mg/kg/day, Male
[17] = 2 µM ZB716, with CYP1A2 inhibitor Furafylline
[18] = 2 µM ZB716, with CYP2A6 inhibitor Tranylcypromine
[19] = 2 µM ZB716, with CYP2B6 inhibitor Ticlopidine
[20] = 2 µM ZB716, with CYP2C8 inhibitor Montelukast
[21] = 2 µM ZB716, with CYP2C9 inhibitor Sulfaphenazole
[22] = 2 µM ZB716, with CYP2C19 inhibitor N-3-benzylnirvanol
[23] = 2 µM ZB716, with CYP2D6 inhibitor Quinidine
[24] = 2 µM ZB716, with CYP3A inhibitor Ketoconazole

C[C@]12CC[C@@H]3c4ccc(B(O)O)cc4C[C@@H](CCCCCCCCC[S+]([O-])CCCC(F)(F)C(F)(F)F)[C@H]3[C@@H]1CC[C@@H]2O (stereo partly shown) [ZB716, fulvestrant-3-boronic acid]
test-article-related mortality or moribundity ([1]; PO 25, 100, 400 mg/kg/day for 4 weeks): no test-article-related mortality or moribundity
AUC(0-t) [1, 5]: 7700 ng·h/mL
Cmax [1, 5]: 1310 ng/mL
Tmax [1, 5]: 1 h
AUC(0-t) [1, 6]: 8040 ng·h/mL
Cmax [1, 6]: 1770 ng/mL
Tmax [1, 6]: 1 h
AUC(0-t) [1, 7]: 42200 ng·h/mL
Cmax [1, 7]: 3200 ng/mL
Tmax [1, 7]: 1 h
AUC(0-t) [1, 8]: 24500 ng·h/mL
Cmax [1, 8]: 3850 ng/mL
Tmax [1, 8]: 1 h
AUC(0-t) [1, 9]: 121000 ng·h/mL
Cmax [1, 9]: 11900 ng/mL
Tmax [1, 9]: 2 h
AUC(0-t) [1, 10]: 51800 ng·h/mL
Cmax [1, 10]: 4850 ng/mL
Tmax [1, 10]: 2 h
AUC(0-t) [1, 11]: 5400 ng·h/mL
Cmax [1, 11]: 1040 ng/mL
Tmax [1, 11]: 0.5 h
AUC(0-t) [1, 12]: 4750 ng·h/mL
Cmax [1, 12]: 1310 ng/mL
Tmax [1, 12]: 0.5 h
AUC(0-t) [1, 13]: 15700 ng·h/mL
Cmax [1, 13]: 1870 ng/mL
Tmax [1, 13]: 1 h
AUC(0-t) [1, 14]: 20100 ng·h/mL
Cmax [1, 14]: 2840 ng/mL
Tmax [1, 14]: 0.5 h
AUC(0-t) [1, 15]: 52400 ng·h/mL
Cmax [1, 15]: 3400 ng/mL
Tmax [1, 15]: 1 h
AUC(0-t) [1, 16]: 50700 ng·h/mL
Cmax [1, 16]: 4060 ng/mL
Tmax [1, 16]: 2 h
half-life at 1 μM ([2]; read-out: Estimated In Vitro t1/2): 0.46 ± 0.0333 h
hepatocyte CLint at 1 μM ([2]; read-out: In Vitro Clint): 50.3 ± 3.6 µL/min/1e6 cells
CLint scaled at 1 μM ([2]; read-out: Scaled-Up Clint): 181 ± 13 mL/min/kg
Remaining at 120 min [3]: 4.41 ± 0.46%
Inhibition % ([4]; 2 µM ZB716, Without Inhibitor): 0.00%
Remaining Percentage (%) at 15 min ([4]; 2 µM ZB716, Without Inhibitor): 18.7 ± 1.2%
Remaining Percentage (%) at 60 min ([4]; 2 µM ZB716, Without Inhibitor): 5.74 ± 0.52%
Inhibition % [4, 17]: −48.9%
Remaining Percentage (%) at 15 min [4, 17]: 8.24 ± 0.80%
Remaining Percentage (%) at 60 min [4, 17]: 1.43 ± 0.51%
Inhibition % [4, 18]: −14.4%
Remaining Percentage (%) at 15 min [4, 18]: 14.8 ± 2.5%
Remaining Percentage (%) at 60 min [4, 18]: 5.24 ± 2.31%
Inhibition % [4, 19]: −9.46%
Remaining Percentage (%) at 15 min [4, 19]: 15.9 ± 0.8%
Remaining Percentage (%) at 60 min [4, 19]: 2.09 ± 0.23%
Inhibition % [4, 20]: −15.1%
Remaining Percentage (%) at 15 min [4, 20]: 14.6 ± 2.4%
Remaining Percentage (%) at 60 min [4, 20]: 3.41 ± 0.30%
Inhibition % [4, 21]: −31.8%
Remaining Percentage (%) at 15 min [4, 21]: 10.9 ± 0.1%
Remaining Percentage (%) at 60 min [4, 21]: 2.31 ± 0.18%
Inhibition % [4, 22]: −22.5%
Remaining Percentage (%) at 15 min [4, 22]: 12.8 ± 1.2%
Remaining Percentage (%) at 60 min [4, 22]: 3.10 ± 0.44%
Inhibition % [4, 23]: 74.7%
Remaining Percentage (%) at 15 min [4, 23]: 65.6% and 65.6 ± 6.0%
Inhibition % [4, 24]: 88.2%
Remaining Percentage (%) at 15 min [4, 24]: 74.4% and 74.4 ± 5.8%
Remaining Percentage (%) at 60 min [4, 24]: 43.4 ± 2.8%
